Results taken from paper PMC11524579, “PRR adjuvants restrain high stability peptides presentation on APCs” (eLife, 2024).

What was measured:
[1] = test system: A20 cells; test: MHC-II immunopeptidome (LC-MS/MS) of adjuvant-treated APCs; type: cell-based, Mus musculus
Protocol: A20 cells were cultured in T75 cell culture flasks (Corning, NY, USA). The expanded cells were pulsed with H. pylori lysates in combination with adjuvants MPLA, MDP, or CpG for 12 hr, collected, washed twice with sterile PBS, and divided into two fractions. One fraction, approximately 10^7 cells, was used for whole-proteome analysis. The remaining 10^8 cells were lysed in cold lysis buffer (1.0% w/v CHAPS, Protease Inhibitor tablet, and PMSF) for MHC-II complex immunoprecipitation. The cell lysates were centrifuged at 18,000×g for 20 min. The supernatant (containing the MHC–peptide complexes) was transferred into a new 1.5 mL microcentrifuge tube (Corning) containing a mixture of Sepharose CNBr-activated beads (Cytivia, Utah, USA) and 2 mg Anti-Mouse H2-IA^d/IE^d (M5/114) antibody (BioXcell, NH, USA). The immune complexes were captured on the beads by incubating on a rotor at 4℃ for 18 hr. Sequentially, the immune complexes were transferred to a polypropylene column (Bio-Rad Laboratories, Hercules, CA, USA) and washed with 10 mL buffer A (150 mM NaCl, 20 mM Tris, pH 8.0), 10 mL buffer B (400 mM NaCl, 20 mM Tris, pH 8.0), 10 mL buffer A, and 10 mL buffer C (Tris 20 mM, pH 8.0). The MHC-II–peptide complexes were eluted with 300 µL 10% glacial acetic acid (Macklin, Shanghai, China) three times. The eluate was stored at −80℃ until mass spectrometry analysis was performed. […]

[2] = test system: A20 cells; test: Whole-proteome LC-MS/MS of adjuvant-treated APCs, bacterial protein abundance; type: cell-based, Mus musculus; conditions: A20 cells 12 hr post-adjuvant stimulation with H. pylori antigens
Protocol: A20 cells were cultured in T75 cell culture flasks (Corning, NY, USA). The expanded cells were pulsed with H. pylori lysates in combination with adjuvants MPLA, MDP, or CpG for 12 hr, collected, washed twice with sterile PBS, and divided into two fractions. One fraction, approximately 10^7 cells, was used for whole-proteome analysis. The remaining 10^8 cells were lysed in cold lysis buffer (1.0% w/v CHAPS, Protease Inhibitor tablet, and PMSF) for MHC-II complex immunoprecipitation. The cell lysates were centrifuged at 18,000×g for 20 min. The supernatant (containing the MHC–peptide complexes) was transferred into a new 1.5 mL microcentrifuge tube (Corning) containing a mixture of Sepharose CNBr-activated beads (Cytivia, Utah, USA) and 2 mg Anti-Mouse H2-IA^d/IE^d (M5/114) antibody (BioXcell, NH, USA). The immune complexes were captured on the beads by incubating on a rotor at 4℃ for 18 hr. Sequentially, the immune complexes were transferred to a polypropylene column (Bio-Rad Laboratories, Hercules, CA, USA) and washed with 10 mL buffer A (150 mM NaCl, 20 mM Tris, pH 8.0), 10 mL buffer B (400 mM NaCl, 20 mM Tris, pH 8.0), 10 mL buffer A, and 10 mL buffer C (Tris 20 mM, pH 8.0). The MHC-II–peptide complexes were eluted with 300 µL 10% glacial acetic acid (Macklin, Shanghai, China) three times. The eluate was stored at −80℃ until mass spectrometry analysis was performed.
Protein aliquots were mixed with 200 μL 8 M urea in Nanosep Centrifugal Devices (PALL) and centrifuged at 12,000×g at 20℃ for 20 min. All the centrifugation steps were performed under the same conditions, allowing for maximal concentration. Then, 200 μL 8 M urea solution with 10 mM DTT was added, and the reduction reaction was performed for 2 hr at 37°C. The solution was removed by centrifugation and 200 μL 8 M urea solution with 50 mM iodoacetamide (IAA) was added. The samples were incubated in the dark for 15 min at room temperature. The ultra-fraction tube was washed with 200 μL 8 M urea three times and 200 μL 25 mM ammonium bicarbonate three times by centrifugation at 12,000×g for 20 min at room temperature. […]

[3] = test system: CD4+ T-cells; test: IFN-γ ICS of in vitro expanded peptide-specific CD4+ T-cells, peptide pool and titrated peptides; type: cell-based, BALB/c mice; conditions: titrated peptides, response at 50 μM taken as 100%, n=3, ICS flow cytometry; compared with ureA #2 and ureA #3
Protocol: (§1) Six- to eight-week-old SPF female BALB/c mice were immunized subcutaneously with 100 μg recombinant H pylori UreB (rUreB, purity >95%) emulsified in adjuvants CpG (20 μg/ mouse), MDP (30 μg/ mouse), and MPLA (10 μg/ mouse). Mice immunized with the same antigen without adjuvants were used as controls. Ten days later, the mice were euthanized with Carbon Dioxide (CO₂), and their spleens were harvested. Antigen-specific T-cells were expanded in vitro as described previously ([Li et al., 2015]). Briefly, the lymphocytes from spleens were isolated using a Ficoll–Hypaque (Dakewe, Shanghai, China) gradient, pulsed with 0.5 μM rUreB protein in the presence of 5 U/mL rmIL-2 (PeproTech, NJ, USA), and in vitro cultured in ‘RF-10’ medium consisting of RPMI 1640 (Gibco, CA, USA) supplemented with 10% fetal calf serum (Gibco), 1% L-glutamine, 1x 2-mercaptoethanol (Gibco), and 100 U/mL penicillin/ streptomycin. On day 5, the live cells were collected using a Ficoll–Hypaque gradient and cultured in a complete medium containing 20 U/mL rmIL-2. Half the medium was replaced when required.
Bulk-cultured T-cells were stimulated with 5 μM peptides for 5 hr in the presence of brefeldin A (BioLegend). The cells were collected and stained with specific antibodies against surface markers. […] The data were analyzed using FlowJo software (Tree Star, CA, USA). […]

[4] = test system: splenocytes; test: IFN-γ ELISpot of splenocytes from peptide-pool immunized mice; type: in vivo; conditions: five BALB/c mice immunized with pool of 10 peptides (50 μg each) in CFA; for IFN-γ ELISpot response, day 10 (effective phase): threshold 3x median of OVA peptide
Protocol: Six- to eight-week-old SPF female BALB/c mice were immunized subcutaneously with a pool of synthetic peptides (50 μg for each peptide) emulsified in Complete Freunds Adjuvant (Sigma-Aldrich). At 10 and 28 days post-vaccination, the mice were euthanized, and the spleens were removed for ELISpot assays.
Splenocytes (500,000 cells/well) were treated with red blood cell lysis buffer and stimulated with 5 μM peptides in triplicate in ELISpot plates (Dakewe Biotech, Shenzhen, China) for 18 hr. IFN-γ secretion was detected using capture and detection antibodies and imaged using an ELISpot & FluoroSpot Reader (Mabtech, Stockholm, Sweden). OVA peptide323–339 (ISQAVHAAHAEINEAGR) and non-stimulated wells were used as negative controls. PMA (BioGems, NJ, USA) was used as a positive control.

[5] = test system: MHC-II H2-IA allele; test: MHC-II competition-binding assay in vitro; conditions: competition with 0.1 μM biotin-labeled control peptide, 50 nM purified MHC-II, 37 °C 24 hr, europium fluorescence; eight concentrations, three independent experiments
[6] = test system: CD4+ T-cells; test: IFN-γ ICS screen of UreB overlapping 18mer peptides on T-cells from adjuvant-vaccinated mice; type: cell-based, BALB/c mice; conditions: spleens day 10, expanded in vitro, 5 μM peptide 5 hr, ICS flow cytometry; for IFN-γ response of CD4+ T-cells to UreB 18mer peptides, CpG group: T-cells from mice vaccinated with UreB + CpG; for IFN-γ response of CD4+ T-cells to UreB 18mer peptides, CpG group / IFN-γ response of CD4+ T-cells to UreB 18mer peptides, MPLA group / IFN-γ response of CD4+ T-cells to UreB 18mer peptides, MDP group: representative of three independent experiments; for IFN-γ response of CD4+ T-cells to UreB 18mer peptides, MPLA group: T-cells from mice vaccinated with UreB + MPLA; for IFN-γ response of CD4+ T-cells to UreB 18mer peptides, MDP group: T-cells from mice vaccinated with UreB + MDP
Protocol: as §1
Bulk-cultured T-cells were stimulated with 5 μM peptides for 5 hr in the presence of brefeldin A (BioLegend). The cells were collected and stained with specific antibodies against surface markers. Intracellular cytokine staining was performed after fixation. Cells were acquired using an LSRFortessa Flow Cytometer (BD Biosciences) or a Navios Flow Cytometer (Beckman Coulter, FL, USA). The data were analyzed using FlowJo software (Tree Star, CA, USA).

CC(=O)N[C@@H]1[C@@H](O[C@H](C)C(=O)N[C@@H](C)C(=O)N[C@H](CCC(=O)O)C(N)=O)[C@H](O)[C@@H](CO)O[C@H]1O [MDP]
Number of MHC peptides identified ([1]; A20 cells treated with adjuvant + H. pylori antigens 12 hr, 10^8 cells, MHC-II IP, LC-MS/MS, mean of n=3 biological replicates): 3257
Effect of adjuvant on peptide repertoires presented by APCs ([1]; A20 cells, H. pylori antigens + adjuvant 12 hr, immunopeptidome): not
% H. pylori: percentage of bacterial protein abundances in the total whole proteome ([2]; sample (replicate) 1): 0.95%
% H. pylori: percentage of bacterial protein abundances in the total whole proteome ([2]; sample (replicate) 2): 1.04%
% H. pylori: percentage of bacterial protein abundances in the total whole proteome ([2]; sample (replicate) 3): 1.09%

AFIDAEHALDVHYAKR [recA #23]
IFN-γ response of expanded CD4+ T-cells to titrated peptide [3]: more robust CD4^+ T-cell responses at lower peptide concentrations
IFN-γ ELISpot response, day 28 (memory phase) [4]: not weaker than that of the other peptides
IFN-γ ELISpot response, day 10 (effective phase) [4]: positive responses
Binding stability for MHC-II [5]: low-stability

ASMIHEVGIEAMFPDGTK [ureA #2]
IFN-γ ELISpot response, day 10 (effective phase) [4]: positive responses
Binding stability for MHC-II [5]: highly stable

KMLELANQIKTNLSAIPQ [hopZ #53]
IFN-γ ELISpot response, day 10 (effective phase) [4]: positive responses
Binding stability for MHC-II [5]: highly stable

U313–330: UreB overlapping 18mer peptide (EHMDMLMVCHHLDKSIKE; UniProt P69996 313-330, looked up, fragment)
IFN-γ response of CD4+ T-cells to UreB 18mer peptides, CpG group [6]: dominant response
IFN-γ response of CD4+ T-cells to UreB 18mer peptides, MPLA group [6]: primarily recognized

U403–426: UreB region covered by overlapping 18mer peptides (KRYLSKYTINPAIAHGISEYVGSV; UniProt P69996 403-426, looked up, fragment)
IFN-γ response of CD4+ T-cells to UreB 18mer peptides, CpG group [6]: dominant response

U409–426: UreB overlapping 18mer peptide (YTINPAIAHGISEYVGSV; UniProt P69996 409-426, looked up, fragment)
IFN-γ response of CD4+ T-cells to UreB 18mer peptides, MDP group [6]: dominant response

U481–498: UreB overlapping 18mer peptide (HHGKAKYDANITFVSQAA; UniProt P69996 481-498, looked up, fragment)
IFN-γ response of CD4+ T-cells to UreB 18mer peptides, MDP group [6]: dominant response

U481–U504: UreB dominant region covered by overlapping 18mer peptides (HHGKAKYDANITFVSQAAYDKGIK; UniProt P69996 481-504, looked up, fragment)
IFN-γ response of CD4+ T-cells to UreB 18mer peptides, no-adjuvant group ([6]; T-cells from mice vaccinated with UreB without adjuvant): dominant region

U505–522: UreB overlapping 18mer peptide (EELGLERQVLPVKNCRNI; UniProt P69996 505-522, looked up, fragment)
IFN-γ response of CD4+ T-cells to UreB 18mer peptides, MPLA group [6]: primarily recognized

YVEAVALISAHIMEEAR [ureA #3]
IFN-γ ELISpot response, day 10 (effective phase) [4]: positive responses
Binding stability for MHC-II [5]: highly stable
